Reference: paper PMC3626250, “Effects of Borneol on Pharmacokinetics and Tissue Distribution of Notoginsenoside R1 and Ginsenosides Rg1 and Re in Panax notoginseng in Rabbits” (Journal of Analytical Methods in Chemistry, 2013)

Columns and labels:
Caco-2 cells = experiment: MTT cytotoxicity assay toward Caco-2 cells; format: cell-based; conditions: chosen for transport study
Procedure: The Caco-2 cells were cultured in Dulbecco's modified Eagle's medium (DMEM) supplemented with 20% foetal bovine serum, 1% nonessential amino acids and penicillin-streptomycin, at 37°C in an atmosphere with a relative humidity of 95% and a CO2 flow of 5%. Medium was replaced every 2-3 days. When the cell monolayer reached 80% confluence, the cells were detached with a solution of 0.02% EDTA and 0.25% trypsin. The vinblastine-selected Caco-2 cells were cultivated in the presence of 10 nM vinblastine to induce P-glycoprotein (P-gp) expression. The culture medium was changed to a fresh medium without vinblastine 24 h before experiments, and the cells were used between passages 25 and 46. Prior to the transport study, cytotoxicity of NGR1, GRg1, GRe, and Borneol toward Caco-2 cells was determined using MTT assays. Noncytotoxic concentrations of 500 μM NGR1, GRg1, GRe, and 200 μM Borneol (dissolved in DMSO) were chosen for transport study.

Caco-2 cell monolayers = experiment: TEER values of the Caco-2 cell monolayers; format: cell-based; conditions: 200 μM Borneol with 500 μM NGR1, GRg1 and GRe, Caco-2 monolayers
Procedure: In transport studies, vinblastine-selected Caco-2 cells were seeded on polycarbonate filter of transwells for 18–21 days before starting transport study, and the monolayers with the transepithelial electrical resistance (TEER) values greater than 300 Ωcm^2 were used. Caco-2 monolayers were rinsed twice with Hanks' balanced salt solution (HBSS) and preincubated in HBSS at 37°C for 30 min before starting experiments. To start the experiments, 500 μM of NGR1, GRg1, and GRe in final concentrations were added to the donor side with or without 200 μM Borneol and then incubated at 37°C. An aliquot of 0.1 mL samples were withdrawn from receiver chambers at 0, 30, 60, 90, and 120 min after the loading. After each sampling, 0.1 mL of HBSS was added to the receiver chamber to maintain a constant volume. All the experiments were performed five times in duplicate. […] During the above transport studies, the TEER values were also monitored before and at the end of each experiment. Apparent permeability coefficients (P app) were then calculated according to the following equation: (1) Papp=(dC/dt×V)/(A×C0), where dC/dt is the rate of the test compound appearing in the receiver chamber, V is the volume of the solution in the receiver chamber, A is the cell monolayer surface area, and C 0 is the initial concentration of the test compound added in the donor chamber. […]

## CC1(C)C2CCC1(C)C(O)C2 (centres unmarked) [Borneol]
Caco-2 cells
  Noncytotoxic concentration: 200 µM
Caco-2 cell monolayers
  TEER values of the monolayers decreased reversibly to: about 23%
